Results as given in PubChem BioAssay (NCI).
Values joined by “and” are separate entries in the source; they are usually repeats but may differ in a detail not shown here. Equal entries are not always repeated.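 These data come from cells grown in 96-well plates and exposed to compound for 48 hours at five concentrations. GI50 = concentration required for 50% inhibition of growth. The concentration for full growth arrest is given as TGI.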

How the values were obtained:
Test in all cases: NCI tumour cell line growth inhibition, 48 h
[1] = test system: SK-OV-3 ovarian
[2] = test system: K-562 leukemia
[3] = test system: COLO 205 colon
[4] = test system: SR leukemia
[5] = test system: IGROV1 ovarian
[6] = test system: UO-31 renal
[7] = test system: SK-MEL-28 melanoma
[8] = test system: OVCAR-8 ovarian
[9] = test system: UACC-62 melanoma
[10] = test system: RPMI-8226 leukemia

SMILES | GI50 [1] [µM] | TGI [1] [µM] | GI50 [2] [nM] | TGI [2] [µM] | GI50 [3] [nM] | TGI [3] [µM] | GI50 [4] [nM] | TGI [4] [µM] | GI50 [5] [µM] | TGI [5] [µM] | GI50 [6] [µM] | TGI [6] [µM] | GI50 [7] | TGI [7] | GI50 [8] [µM] | TGI [8] [µM] | GI50 [9] [nM] | TGI [9] [µM] | GI50 [10] [nM] | TGI [10] [µM]
O=C(/C=C/c1cccs1)Nc1ncc(Cc2ccccc2F)s1 | 0.477 | > 100 | 74.9 | > 100 | 325 | 26.9 | 52.2 | > 100 | 0.541 | > 100 | 0.437 | > 100 | 886 nM | > 100 µM | 0.508 | > 100 | 207 | > 100 | 330 | > 100
CN1C=CN(Cc2ccc(-c3ccccn3)nc2)[CH-]1.CN1C=CN(Cc2ccc(-c3ccccn3)nc2)[CH-]1.[Au+3] | 9.32 | > 56.7 | 540 | > 100 | 421 | 17.8 | 372 | 42.7 | 1.42 | 10.3 | 22 | > 73.6 | 2470 nM | 14.5 µM | 3.19 | > 100 | 1400 | 6.67 | 1340 | 20.1
O=C(Nc1ccc(-c2nc3ccc(NC(=O)c4ccc(Cl)cc4)cc3[nH]2)cc1)c1ccc(Cl)cc1 | 11.8 | 24.2 | 487 | 4.57 | 2470 | 6.54 | 769 | 4.34 | 6.73 | 19.6 | 8.19 | 20 | 2780 nM | 14.9 µM | 1.73 | 6.93 | 4210 | 16.4 | 5770 | 23
O=C1CCCC2COc3ccc(O)c1c32 (stereo not given) | – | > 100 | – | > 100 | – | > 100 | – | > 100 | – | > 100 | – | > 100 | – | > 100 µM | – | > 100 | – | > 100 | – | > 100
COC(=N)/C(=C1\OC(N)=C(c2ccc(Cl)cc2)C1=O)c1ccc(Cl)cc1 | – | > 100 | – | > 100 | – | > 100 | – | > 100 | – | > 100 | – | > 100 | – | > 100 µM | – | > 100 | – | > 100 | – | > 100
CCCC/C(C)=N/NC(N)=S | – | > 100 | – | > 100 | – | > 100 | – | > 100 | – | > 100 | – | > 100 | – | > 100 µM | – | > 100 | – | > 100 | – | > 100
Cc1cc(C(=O)NCCN(C)C)c2nc3ccccc3nc2c1 | – | > 46 | – | 9.8 | – | > 37.1 | – | > 100 | – | > 29.5 | – | > 59.6 | – | 16.1 µM | – | > 76.6 | – | 18.7 | – | 41.2
O=C(O)C(O)C(O)C1[O][Sb][O]C1CO (stereo not given) | > 100 | > 100 | > 100000 | > 100 | > 100000 | > 100 | > 100000 | > 100 | > 100 | > 100 | > 100 | > 100 | > 100000 nM and 13700 nM | > 100 µM and 43.4 µM | > 100 | > 100 | > 100000 | > 100 | > 100000 | > 100
Fc1cc(Nc2ccc3c(OCCCN4CCOCC4)cccc3n2)ccc1Cl | 2.24 | 4.72 | 1910 | 4.38 | 1820 | 3.43 | 1690 | 6.64 | 3.19 | 9.32 | 1.65 | 4.11 | 1820 nM | 3.56 µM | 4.03 | 15.3 | 2320 | 5.61 | 2640 | 6.97
NC(=O)c1ccc(-c2c3ccccc3cc3c2ccc2ccccc23)cc1 | 4.02 | 24.2 | 1500 | > 100 | 3820 | 36.5 | 1300 | > 100 | 7.6 | > 100 | 7.1 | 39.5 | 4390 nM | 36 µM | 6.51 | 36.3 | 4320 | 40.2 | 5600 | 40.7
COc1ccc(/C=C/CO)cc1OC | – | > 100 | – | > 100 | – | > 100 | – | > 100 | – | > 100 | – | > 100 | – | > 100 µM | – | > 100 | – | > 100 | – | > 100
O=C(N/N=C\c1cc(Cl)ccc1O)N/N=C/c1cc(Cl)ccc1O | > 100 | > 100 | 572 | > 100 | 4920 | > 100 | 78500 | > 100 | 1.56 | > 100 | 0.489 | > 100 | > 100000 nM | > 100 µM | 1.77 | > 100 | 918 | > 100 | 2790 | > 100
